Biological target: T1, calcineurin/cyclophilin A (Homo sapiens, UniProt P62937+P63098+Q08209)
T1 construct: purchased Enzo Life Sciences (calcineurin, calmodulin); Sigma (CypA) BML-AK804; C3805
Assay: Calcineurin phosphatase (CaN) assay in the presence of Cyp A
Assay type: biochemical
Details: inhibitor in 1:1 complex with Cyp A; read-out: CaN + CypA (IC50 in the calcineurin/cyclophilin A assay)
Text: **Calcineurin Phosphatase (CaN) Assay The calcineurin phosphatase assay is a means for estimating the immunosuppressive potential of a test compound. Calcineurin is a serine-threonine protein phosphatase that on activation dephosphorylates members of the nuclear factor of activated T cells (NFAT), which are important in T lymphocyte activation. […] To investigate the immunosuppressive potential of exemplary compounds of Formula 1, which are novel cycloundecadepsipeptide compounds, their ability to inhibit calcineurin activity was measured in the presence of Cyp A. The CaN assay kit used is based on a colorimetric assay for measuring calcineurin phosphatase activity, and it is commercially available (Enzo Life Sciences and Calbiochem). Calmodulin is also required for calcineurin activity and RH phosphopeptide is used as an efficient peptide substrate for calcineurin. […] The detection of free phosphate released is based on the classic Malachite green assay. Enzo Life Sciences CaN Assay Kit: BML-AK804 2× assay buffer: 100 mM Tris, pH7.5, 200 mM NaCl, 12 mM MgCl2, 1 mM DTT, 0.05% NP-40, 1 mM CaCl2 Calmodulin (Human, Recombinant): was thawed on ice, diluted 1:50 with 2× assay buffer, and then stored on ice. Calcineurin: was thawed quickly, stored on ice immediately, diluted 1:12.5 with 1× assay buffer, and then stored on ice. R-II Substrate: 915 μL ultrapure water (UPW) was added to the 1.5 mg vial substrate to give a final concentration of 0.75 mM. Inhibitors: 2.5 mM inhibitor in 100% DMSO. Cyp A: recombinant human CypA (Sigma C3805), 1 mg/ml; Recombinant 6-his tagged CypA prepared by the Univ. of Edinburgh was also used. […] Inhibitor dilutions: inhibitor compounds were diluted in UPW in polypropylene low-binding 96 well plates at 5x the final assay concentration. For samples ‘without Cyp A’, a 4-point dilution series of the inhibitor was prepared in duplicate to obtain a final assay concentration of 10, 1, 0.1 and 0.01 μM. […] Cs A inhibitor controls were also prepared to obtain a final concentration of 10 μM Cs A with and without 10 μM Cyp A. Assay Setup: using the half area 96 well plates supplied with the kit, 10 μl UPW was added to duplicate wells to provide the non-inhibited control. 10 μl of the inhibitor or the inhibitor/Cyp A complex was added to the appropriate sample wells. 25 μl of the 2× assay buffer with CaM was added to all wells, then 5 μl of CaN was added to all wells (40 U per well final concentration) except duplicate ‘no calcineurin blank’ wells to which 5 μL 1× assay buffer was added. […] The reaction was started by the addition of 10 μl RII-peptide (0.15 mM final concentration). The reaction was allowed to proceed at 30° C. for a time period in which the reaction is linear for about 60 minutes. The reaction was then terminated by adding 100 μl of the Malachite Green reagent. […] The data were analyzed by subtracting ‘no Calcineurin blank’ from all the absorbance readings and plotting the background corrected absorbances against Log10 inhibitor concentration. A sigmoidal-dose response curve was fitted to the data using GraphPad Prism Software. […] It exerts its immunosuppressive activity by binding to cyclophilin A to form a complex, which then binds to calcineurin and thereby inhibits calcineurin activity.

T1 sequence (P63098 whole entry, other chains not shown): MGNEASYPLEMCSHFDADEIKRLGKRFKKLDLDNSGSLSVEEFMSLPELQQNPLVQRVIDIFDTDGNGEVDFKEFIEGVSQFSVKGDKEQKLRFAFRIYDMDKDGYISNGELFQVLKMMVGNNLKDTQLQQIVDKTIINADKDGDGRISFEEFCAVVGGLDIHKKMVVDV
T1 sequence (P62937 whole entry, other chains not shown): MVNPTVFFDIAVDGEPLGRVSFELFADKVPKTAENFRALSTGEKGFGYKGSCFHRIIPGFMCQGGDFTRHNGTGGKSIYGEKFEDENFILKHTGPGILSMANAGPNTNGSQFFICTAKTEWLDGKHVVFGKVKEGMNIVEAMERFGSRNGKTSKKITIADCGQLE

For `CC(C)CC1NC(=O)[C@H](CC(C)C)N(C)C(=O)CN(C)C(=O)C([C@@H](C)O)NC(=O)C([C@H](O)[C@H](C)CCN2CCOCC2)N(C)C(=O)C(C(C)C)N(C)C(=O)C(CC(C)C)NC(=O)C(CC(C)C)N(C)C(=O)C(C(C)C)OC(=O)C(C)NC(=O)C(CC(C)C)N(C)C1=O` (stereo in doubt) [Example 2, cyclo-[(3R,4R,5S)-4-(hydroxy)-3-methyl-5-(methylamino)-1-N-morpholino-hexanoic acid-Thr-Sar-MeLeu-Leu-MeLeu-Ala-D-Hiv-MeLeu-Leu-MeVal]], the IC50 was over 1000 nM.
